The source of these data is US20220387457A1 (Qlaris Bio, Inc., priority 2020, published 2022).

The test system of data set [1] is α-SMA, CD31, endothelin-I, fibronectin, VE-cadherin, phospho-eNOS and total eNOS. The experiment in a line: Protein expression (western blot, immunocytochemistry) in 3D HTM/SC constructs. The following applies: levcromakalim 1, 10 or 100 μM, Y-27632 10 μM. It counts as cell-based, human. The method, then: Bioengineered 3D conventional outflow tract constructs using 4 donors (ages 47-91) were treated with […] (5 ng/mL) for 6 days. […] Protein expression of α-smooth muscle actin (α-SMA), CD31, endothelin-I, fibronectin, VE-cadherin, phospho-eNOS and total eNOS was analyzed via western blot. Cellular expression of α-SMA, fibronectin, phospho-eNOS and total eNOS was determined by immunocytochemistry and confocal microscopy. Statistical significance was determined by one-way ANOVA with a Tukey's multiple comparisons test, or by two-way ANOVA.
In general terms: In western blotting, separated proteins are transferred to a membrane and probed.

Data set [2] addresses T1, human Kir6.2/SUR2B KATP channel (Homo sapiens, UniProt O60706).
T1 construct: expressed in transfected cells
The experiment in a line: FLIPR membrane potential assay in HEK-Kir6.2/SUR2B cells. To be noted: glibenclamide 10 μM. It is filed as cell-based. The method, then: The ability of CKLP1 and the active moiety of CKLP1, leveromakalim, to pharmacologically modulate the function of the human ATP-sensitive potassium channel comprised of Kir6.2 (encoded by the human gene KCNJ11) coupled to the sulfonylurea receptor SUR2B (encoded by the human gene ABCC9) was studied.
Compounds were dissolved up to 10 mM stock solution in DMSO. Ten-point concentration response curves were generated at 100× concentration in 100% DMSO. Compound source plates were made by serially diluting 10 mM compound stocks in DMSO to generate a progressive semilog dilution schema. Dose response stock plate (10 μL) were then transferred into assay plates containing 90 μL of assay buffer, generating 10× working concentrations. Final assay test concentration ranges of 100 μM to 0.003 μM with a final DMSO concentration of 1.0%.
Human embryonic kidney (HEK) cells stably expressing human Kir6.2/SUR2B KATP channel subunits were plated onto 96 well, black poly-d-lysine (PDL)-coated microplates and maintained in growth media the day prior to use for experiments. Media was removed from the plates and 90 μL of 1× stock of the membrane potential sensitive fluorescent dye FMP-Blue resuspended in assay buffer (EBSS—in mM: NaCl 145, KCl 2, Glucose 5, CaCl2) 1.8, MgCl2 0.8, HEPES 10, pH 7.4 with NaOH, 290-300 mOSm) was added to the cells. Cells were incubated at room temperature, protected from light, for 45-60 minutes. After the incubation period, cell, test compound and glibenclamide plates were loaded onto the fluorescence plate reader (FLIPR-TETRA™) and the scanning initiated. The FLIPR measured a 10 second baseline and then added 10 μL of 10× the final desired concentration of test agent. Changes in fluorescence were monitored for an additional 5 minutes. After the 5-minute compound incubation, 10 μL of the receptor inhibitor glibenclamide was added to the cell plate (10 uM final glibenclamide concentration). Changes in fluorescence was then monitored for an additional 5 minutes.
Compound modulation of Kir6.2/SUR2B KATP channel mediated changes in cellular membrane potential was determined as follows. After the administration of compound, FMP fluorescence was monitored for a 5-minute period. The following parameters were recorded and exported from the FLIPR: the average relative fluorescence response (RFU) of 5 images taken at the 5-minute point in the assay with the average background EBSS buffer response subtracted. […] Test agent effect was calculated as % activation using the following formula: […]
Curve fits were performed in GraphPad Prism graphing software using a 4-parameter, variable slope fit equation.

The conditions of data set [3]: cited from earlier work.
Data set [4] concerns single KATP channels. To be noted: in the presence of ATP; Brayden et al. 1991; cited from earlier work.

T1 sequence (O60706 1-1549 isoform O60706-2): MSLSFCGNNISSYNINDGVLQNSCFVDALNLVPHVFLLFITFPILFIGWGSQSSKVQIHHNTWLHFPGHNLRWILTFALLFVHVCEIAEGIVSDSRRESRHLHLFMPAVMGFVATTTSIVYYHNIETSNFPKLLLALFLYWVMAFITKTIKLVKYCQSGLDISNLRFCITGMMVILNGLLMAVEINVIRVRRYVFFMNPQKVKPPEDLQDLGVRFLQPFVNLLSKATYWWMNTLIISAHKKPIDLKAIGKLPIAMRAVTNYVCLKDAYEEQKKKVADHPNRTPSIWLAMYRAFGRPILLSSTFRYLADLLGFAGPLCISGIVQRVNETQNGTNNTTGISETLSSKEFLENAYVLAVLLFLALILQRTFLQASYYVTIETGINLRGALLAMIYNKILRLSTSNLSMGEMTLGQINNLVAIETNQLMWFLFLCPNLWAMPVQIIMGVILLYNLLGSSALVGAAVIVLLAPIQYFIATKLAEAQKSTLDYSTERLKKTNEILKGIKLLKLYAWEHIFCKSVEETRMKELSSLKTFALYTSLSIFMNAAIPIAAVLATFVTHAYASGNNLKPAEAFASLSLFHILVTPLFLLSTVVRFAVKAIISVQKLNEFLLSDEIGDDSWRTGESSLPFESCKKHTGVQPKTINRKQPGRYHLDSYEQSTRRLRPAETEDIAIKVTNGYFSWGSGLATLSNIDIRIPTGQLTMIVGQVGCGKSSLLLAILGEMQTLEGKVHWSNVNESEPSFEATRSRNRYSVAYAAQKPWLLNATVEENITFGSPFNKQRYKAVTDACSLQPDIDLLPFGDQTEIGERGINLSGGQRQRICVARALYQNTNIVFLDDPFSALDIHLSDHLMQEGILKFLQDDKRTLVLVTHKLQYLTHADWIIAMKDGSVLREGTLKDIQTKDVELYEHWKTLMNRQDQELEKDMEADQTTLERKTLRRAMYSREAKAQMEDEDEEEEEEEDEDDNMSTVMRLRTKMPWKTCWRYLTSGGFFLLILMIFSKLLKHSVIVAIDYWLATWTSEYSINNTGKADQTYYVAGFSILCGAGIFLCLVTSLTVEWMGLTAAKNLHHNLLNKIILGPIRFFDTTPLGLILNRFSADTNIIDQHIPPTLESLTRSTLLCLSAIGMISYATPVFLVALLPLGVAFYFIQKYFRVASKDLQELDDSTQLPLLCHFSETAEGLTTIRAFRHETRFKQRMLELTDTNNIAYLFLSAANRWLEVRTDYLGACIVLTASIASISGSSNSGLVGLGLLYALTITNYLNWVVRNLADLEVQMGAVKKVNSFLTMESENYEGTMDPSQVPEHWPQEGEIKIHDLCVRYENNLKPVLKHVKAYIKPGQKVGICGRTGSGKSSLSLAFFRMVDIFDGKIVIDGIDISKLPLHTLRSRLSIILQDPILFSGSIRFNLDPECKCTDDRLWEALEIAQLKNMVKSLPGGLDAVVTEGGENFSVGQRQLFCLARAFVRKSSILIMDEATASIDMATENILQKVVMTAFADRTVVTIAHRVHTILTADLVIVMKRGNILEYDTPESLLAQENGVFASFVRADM
T1 sequence (Q14654 whole entry partner): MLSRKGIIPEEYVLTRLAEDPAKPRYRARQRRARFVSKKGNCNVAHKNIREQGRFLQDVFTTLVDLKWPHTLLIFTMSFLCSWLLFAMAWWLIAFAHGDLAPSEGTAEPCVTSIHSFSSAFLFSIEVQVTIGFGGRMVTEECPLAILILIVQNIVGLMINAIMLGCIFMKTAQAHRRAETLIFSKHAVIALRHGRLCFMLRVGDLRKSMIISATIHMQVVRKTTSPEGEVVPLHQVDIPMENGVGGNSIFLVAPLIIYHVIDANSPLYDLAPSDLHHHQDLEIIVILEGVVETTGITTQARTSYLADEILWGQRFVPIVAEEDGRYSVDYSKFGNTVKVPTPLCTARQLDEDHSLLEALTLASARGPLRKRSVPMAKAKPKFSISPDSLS

For the molecule `C[C@@H](N)[C@H]1CC[C@H](C(=O)Nc2ccncc2)CC1` [Y-27632], the “expression of the cell adhesion proteins CD31 and VE-Cadherin” value is listed as “significantly decreased” in data set [1] and “decreased expression” in data set [1] (listed as Y27632).

`CC1(C)Oc2ccc(C#N)cc2C(N2CCCC2=O)C1O` (stereo not drawn) [Cromakalim, cromakalim]: in data set [2], the “hyperpolarization reversed by coadministration of glibenclamide” value is “reversed”. Also, the solubility in water result in data set [3] is given as “substantially insoluble in water”. Besides, in data set [4], the “increase of open-state probability (Popen) of single KATP channels” value is “more than 9 fold”.

With `CC(N/C(=N\C#N)Nc1ccncc1)C(C)(C)C` (stereo not drawn) [Pinacidil, pinacidil, reference compound], the “hyperpolarization reversed by coadministration of glibenclamide” value in data set [2] is listed as “reversed”.
